Laboratory results published in paper PMC3154276, “The Effect of the Potential PhoQ Histidine Kinase Inhibitors on Shigella flexneri Virulence” (PLoS ONE, 2011).

Tests used:
S. flexneri Sf9380 = experiment: Gentamicin protection assay, HeLa cell invasion by Sf9380; type: cell-based; details: for invasion of HeLa cells by Sf9380 (bacteria recovered / inoculated): bacteria pre-treated 8 hours, untreated Sf9380 5.87×10^−2
Procedure: The growth curve of Sf9380 treated with or without potential PhoQ inhibitors at concentration 200 µmol/L were tested. […] The gentamicin protection assay was used as a cellular model to evaluate the inhibitory effect of the four potential PhoQ inhibitors. The bacteria were treated with each of the four potential PhoQ inhibitors in a serial dilution and grown for 8 hours. Next, the bacteria were inoculated and incubated with HeLa cells for 60 min prior to the addition of gentamicin to kill extracellular bacteria. For testing intracellular growth and spreading to adjacent cell, cells were further incubated for 290 min [9]. The results of the assays were expressed as the number of bacteria recovered from gentamicin-treated cells divided by the number of inoculated bacteria added to the cell. After lysates of HeLa cells were plated, the number of CFU that formed on LB agar were counted.
Figure 6 The effects of potential PhoQ inhibitors on virulence of Shigella. […] The bacteria pre-treated with potential PhoQ inhibitor were added to HeLa cells at a multiplicity of infection of 100. Then gentamicin was added to kill extracellular bacteria and cell lysates were plated onto LB plates, and the colonies were counted. The results of the assays were expressed as the number of bacteria recovered from gentamicin-treated cells divided by the number of inoculated bacteria added to the cell. S. flexneri Sf9380 (treated without DMSO), a clinical strain with strong virulence, served as the positive control for the cell invasion assay; E. coli ATCC 25922 (treated without DMSO), an avirulent strain, served as the negative control for the cell invasion assay; bacteria treated with 0.1% DMSO (the solvent of the potential PhoQ inhibitor) also served as a control for the cell invasion assay. Values are means ± standard deviations from 6 independent wells. *p<0.01 vs. Sf9380. (A) The effects of potential PhoQ inhibitors on cell invasion of S. flexneri Sf9380 (B) The effects of potential PhoQ inhibitors on intracellular growth S. flexneri Sf9380. (C) The effects of potential PhoQ inhibitors on cell invasion of S. flexneri 2a 301 phoQ/phoP knock-out mutant.
Bacterial ability to invade HeLa cells was tested with a gentamicin protection assay. HeLa cells were grown in six-well tissue culture plates to semi-confluent monolayers (DMEM, 10% FCS, 5% CO2). Sf9380 or Sf301 ΔphoQ/phoP was treated with potential PhoQ inhibitors for 8 hours in LB at 37°C (final concentrations of 100,50,25,12.5 or 6.25 µmol/L) prior to infection. The bacteria pre-treated with potential PhoQ inhibitor without washing, were added to semi-confluent HeLa cells at a multiplicity of infection of 100, at the same time the bacteria were diluted and plated onto LB agar plates. The CFUs were counted as initial bacterial number before added into HeLa cells. Then the plates were centrifuged at 900×g for 5 minutes. After incubating at 37°C for 60 minutes (For testing intracellular growth and spreading to adjacent cell, cells were further incubated for 290 min [9].), the cells were washed three times with PBS, and gentamicin was added to the medium to a final concentration of 10 µg/ml for 20 minutes at 37°C. After the incubation, the HeLa cells in each well were lysed in 1 ml of PBS containing 0.1% Triton X-100 for 10 minutes at room temperature. The lysates were diluted and plated onto LB agar plates in triplicate. Colonies grown on LB plates were counted. The results of the assays were expressed as the number of bacteria recovered from gentamicin-treated cells divided by the number of inoculated bacteria added to the cell. The cells were inoculated with untreated Sf9380 or Sf301 ΔphoQ/phoP (treated without DMSO) as a positive control and E. coli ATCC 25922, an avirulent strain treated without DMSO, as a negative control. […]

[1] = tested on: S. flexneri 2a 301 phoQ/phoP knock-out mutant (Sf301 ΔphoQ/phoP); experiment: Gentamicin protection assay, HeLa cell invasion by phoQ/phoP knock-out mutant; type: cell-based; details: HeLa cells; for cell invasion rate of Sf301 ΔphoQ/phoP: untreated mutant 0.069; for effect on cell invasion of Sf301 phoQ/phoP knock-out mutant: Figure 6C
Procedure: Bacterial ability to invade HeLa cells was tested with a gentamicin protection assay. HeLa cells were grown in six-well tissue culture plates to semi-confluent monolayers (DMEM, 10% FCS, 5% CO2). Sf9380 or Sf301 ΔphoQ/phoP was treated with potential PhoQ inhibitors for 8 hours in LB at 37°C (final concentrations of 100,50,25,12.5 or 6.25 µmol/L) prior to infection. The bacteria pre-treated with potential PhoQ inhibitor without washing, were added to semi-confluent HeLa cells at a multiplicity of infection of 100, at the same time the bacteria were diluted and plated onto LB agar plates. The CFUs were counted as initial bacterial number before added into HeLa cells. Then the plates were centrifuged at 900×g for 5 minutes. After incubating at 37°C for 60 minutes (For testing intracellular growth and spreading to adjacent cell, cells were further incubated for 290 min [9].), the cells were washed three times with PBS, and gentamicin was added to the medium to a final concentration of 10 µg/ml for 20 minutes at 37°C. After the incubation, the HeLa cells in each well were lysed in 1 ml of PBS containing 0.1% Triton X-100 for 10 minutes at room temperature. The lysates were diluted and plated onto LB agar plates in triplicate. Colonies grown on LB plates were counted. The results of the assays were expressed as the number of bacteria recovered from gentamicin-treated cells divided by the number of inoculated bacteria added to the cell. The cells were inoculated with untreated Sf9380 or Sf301 ΔphoQ/phoP (treated without DMSO) as a positive control and E. coli ATCC 25922, an avirulent strain treated without DMSO, as a negative control. DMSO is the solvent of the potential PhoQ inhibitor compounds; therefore, Sf9380 was also treated with the same amount of 0.1% DMSO as the other groups to control for any DMSO-specific effects. The cell invasion assay was performed in triplicate for each potential PhoQ inhibitor, and the assay was repeated twice.

## O=C(Nc1ccc(C2(c3cccc(NC(=O)c4cccc5ccccc45)c3)c3ccccc3C(=O)c3ccccc32)cc1)c1ccc2ccccc2c1 [Compound 1]
S. flexneri Sf9380; 12.5 µmo/L, HeLa cells
  times lower invasion than untreated Sf9380: 4.3 times
S. flexneri Sf9380; 12.5 µmo/L
  invasion of HeLa cells by Sf9380 (bacteria recovered / inoculated): 1.36×10^−2
S. flexneri Sf9380; concentrations lower than 12.5 µmo/L
  effect on invasion of HeLa cells by Sf9380: no obvious effects
[1]; 12.5 µmo/L
  cell invasion rate of Sf301 ΔphoQ/phoP: 0.064
[1]
  effect on cell invasion of Sf301 phoQ/phoP knock-out mutant: no obvious effects

## CCOc1ccccc1-c1cc(C(=O)N/N=C/c2ccc(OCc3ccccc3)c(OC)c2)c2ccccc2n1 [Compound 2]
S. flexneri Sf9380; 25 µmo/L, HeLa cells
  times lower invasion than the control: 16.3 times
S. flexneri Sf9380; concentrations lower than 25 µmo/L
  effect on invasion of HeLa cells by Sf9380: no obvious effects
[1]; 25 µmo/L
  cell invasion rate of Sf301 ΔphoQ/phoP: 0.102
[1]
  effect on cell invasion of Sf301 phoQ/phoP knock-out mutant: no obvious effects

## O=C(O)c1ccc(Cl)c(-c2ccc(/C=N/NC(=O)c3ccc(Br)cc3)o2)c1 [Compound 3]
S. flexneri Sf9380; 100 µmo/L
  invasion of HeLa cells by Sf9380 (bacteria recovered / inoculated): 1.95×10^−2
S. flexneri Sf9380; concentrations lower than 100 µmo/L
  effect on invasion of HeLa cells by Sf9380: no obvious effects
[1]; 100 µmo/L
  cell invasion rate of Sf301 ΔphoQ/phoP: 0.083
[1]
  effect on cell invasion of Sf301 phoQ/phoP knock-out mutant: no obvious effects

## O=C(O)c1cc(-c2ccc(-c3ccccc3Cl)o2)nc2ccc3ccccc3c12 [Compound 4]
S. flexneri Sf9380; 100 µmo/L
  effect on invasion of HeLa cells by Sf9380: no effect
[1]; 100 µmo/L
  cell invasion rate of Sf301 ΔphoQ/phoP: 0.053
